Assay results taken from patent US12643954B2, “Anti-CD36 antibodies and their use to treat cancer” (ONA Therapeutics, S.L., priority 2020, dated 2026).

Tests used:
FaDu cells = assay: FaDu orthotopic mouse model of oral cancer metastasis; format: in vivo; conditions: single agent
Description: (§1) NOD scid gamma (NSG) (NOD.Cg-Prkdc^scidII2rg^tm1Wj1/SzJ) mice were purchased from Charles River and crossed in-house. All mice were housed under a regimen of 12h light/12h dark cycles and SPF conditions, and all procedures were evaluated and approved by the CEEA (Ethical Committee for Animal Experimentation) from the Government of Catalunya. SCC intra-tongue injection was performed as previously described (Oskarsson et al., 2014; Nieman et al., 2011). Briefly, mice were anesthetized by intraperitoneal injection with a mixture of 50 mg per kg of ketamine and 0.5 mg per kg of medetomidin, and SCC cells resuspended in 30 μl PBS were injected into each mouse tongue with a BD ultra-fine 6 mm needle. Mice were monitored for the luciferase bioluminescent signal immediately after injection (TO) and once weekly thereafter with a Xenogen IVIS Imaging System-100 (Caliper Life Sciences). Briefly, animals were injected by retro-orbital injection with 50 μl of D-luciferin (Promega) diluted in 1×PBS at 5 mg ml^−1. Continuous administration of isofluorane gas was provided to ensure anesthetizing animals during imaging. Data was quantified with the Living Image software version 4.4 (Caliper Life Sciences). Quantifications were calculated with unsaturated pixels. Color scale minimum and maximum values are shown in pictures.
Studies on the combination of the effects of the ONA-0-v1 anti-CD36 antibody, both with and without cisplatin, were performed in NSG mice (immuno-deficient). The studies included both male and female mice. All mice were inoculated with commercially available FaDu (ATCC) cancer cells, transduced with a retroviral vector expressing luciferase and the green fluorescent protein (Luc-GFP). FaDu cells were derived from a squamous cell carcinoma (i.e., from an oral cancer). Prior to inoculation, the FaDu cells were cultured in a humidified incubator at 37° C. with 5% CO2, and were grown in EMEM (LONZA) supplemented with 5 μg ml^−1 penicillin/streptomycin and 10% FBS (GIBCO).
For each mouse, 100,000 FaDu cells were inoculated via orthotopic injection.
Treatment of the inoculated mice began nine days after inoculation with the cancer cells. Inoculated mice were divided into four distinct treatment groups.
Antibody treatments were administered via intraperitoneal (i.p.) injection daily at a dose of 1 mg/kg. Cisplatin was administered twice weekly at a dose of 2 mg/kg (Groups 2 and 4). […] During the course of treatment, mice were observed once weekly using an in vivo imaging system (IVIS). Further, mouse body weight was measured twice weekly to update appropriate dosage amounts. At the end of the treatment period, the mice were sacrificed, and organs and tissues were collected for performance of immunohistochemistry analysis.

Detroit 562 cells = assay: Detroit 562 orthotopic mouse model of oral cancer metastasis; format: in vivo; conditions: single agent; antibody 1 mg/kg i.p. daily, cisplatin 2 mg/kg twice weekly
Description: as §1, with “Continuous administration of isofluorane gas was provided to ensure anesthetizing animals during imaging.” left out, “Color scale minimum and maximum values are shown in pictures.” left out
Antibody treatments were administered via intraperitoneal (i.p.) injection daily at a dose of 1 mg/kg. […] Further, mouse body weight was measured twice weekly to update appropriate dosage amounts. […]

[1] = target: T1, cells overexpressing human CD36 (Homo sapiens, UniProt P16671); assay: FACS binding to cells overexpressing human CD36; conditions: serial dilution up to 100 nM
T1 construct: expressed in transfected cells
Description: For FACS analysis, cells were trypsinized, collected in a 15 mL tube and diluted in washing buffer (2% FBS in PBS). Cells were then centrifuged at 1500 rpm for 5 min at 4° C., supernatant was discarded, and cells were resuspended in fresh washing buffer. Anti-CD36 antibodies were either omitted (control wash buffer treatment) or serially diluted in washing buffer (dilution range up to 100 nM), and then added to the cells. Incubation was performed on ice for 1 hour. Cells were then centrifuged at 1500 rpm for 5 min at 4° C., supernatant was discarded, and cells were resuspended in fresh washing buffer. Finally, cells were incubated with a […] (BV421 Rat Anti-Mouse IgA, Becton Dickinson, reference 743293) diluted 1:100 in washing buffer, washed and analysed by FACS.

mouse CD36 = target: T2, mouse CD36 (Mus musculus, UniProt Q08857); assay: ELISA binding to plate-coated mouse CD36; conditions: recombinant mouse CD36 coated plates
T2 construct: purchased Sino Biological 50422-M08H
Description: (§2) To perform ELISA assays, 96-well ELISA plates were coated over night with human CD36 (Sino Biological, reference 10752-H08H) or mouse CD36 (Sino Biological, reference 50422-M08H) recombinant proteins at a concentration of 0.25 mg/ml. After two washes with PBS, plates were blocked with 4% skimmed milk in PBS for 1 hour at 37° C. Blocking solution was discarded and plates were washed five times with 200 μl/well PBS-Tween20 (0.5%). Primary antibodies were either omitted (control blocking solution treatment) or mixed in blocking solution at several dilutions ranging from 0.01 nM to 0.5 μM. The primary antibody solutions were added to the wells and incubated over night at 4° C. After 5 washes with 200 ul/well of PBS-Tween20 (0.5%), plates were incubated for 1 hour at room temperature with a goat anti-mouse HRP-conjugated antibody (Abeam, reference ab97235) diluted 1:2000 in blocking solution. Plates were then washed 5 times with 200 μl/well of PBS-Tween20 (0.5%), incubated with 100 μl/well TMB and detected after 10 minutes, 30 minutes, or 60 minutes with a spectrophotometer at a wave length of 630 nm.

CD36 = CD36 (Homo sapiens, UniProt P16671); assay: ELISA binding to plate-coated human CD36; design: purchased Sino Biological 10752-H08H; conditions: recombinant human CD36 coated plates
Description: as §2

T2 sequence (Q08857 30-439 limits assumed): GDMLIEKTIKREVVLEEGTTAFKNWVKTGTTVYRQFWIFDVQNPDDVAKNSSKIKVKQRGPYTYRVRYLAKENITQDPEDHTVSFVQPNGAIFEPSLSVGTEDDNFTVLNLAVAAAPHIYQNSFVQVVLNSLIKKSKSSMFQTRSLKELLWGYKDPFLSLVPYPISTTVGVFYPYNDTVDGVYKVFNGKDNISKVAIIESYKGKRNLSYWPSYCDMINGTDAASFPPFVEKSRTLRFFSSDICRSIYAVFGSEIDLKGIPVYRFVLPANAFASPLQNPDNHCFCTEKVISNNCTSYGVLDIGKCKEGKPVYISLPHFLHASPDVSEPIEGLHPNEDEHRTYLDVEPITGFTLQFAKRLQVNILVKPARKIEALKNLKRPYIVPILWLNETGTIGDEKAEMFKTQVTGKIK
CD36, sequence (P16671 30-439 limits assumed): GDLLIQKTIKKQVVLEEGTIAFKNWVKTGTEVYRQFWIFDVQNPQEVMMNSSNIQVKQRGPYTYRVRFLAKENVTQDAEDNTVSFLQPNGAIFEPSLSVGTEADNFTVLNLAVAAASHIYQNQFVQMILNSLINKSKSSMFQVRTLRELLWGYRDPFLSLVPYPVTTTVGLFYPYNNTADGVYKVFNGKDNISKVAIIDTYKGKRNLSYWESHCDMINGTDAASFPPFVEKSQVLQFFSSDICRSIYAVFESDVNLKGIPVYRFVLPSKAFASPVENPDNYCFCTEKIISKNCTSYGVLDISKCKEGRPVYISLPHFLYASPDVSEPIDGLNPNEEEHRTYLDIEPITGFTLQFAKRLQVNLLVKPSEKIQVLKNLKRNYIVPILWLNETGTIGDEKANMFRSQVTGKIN
T1 sequence (P16671 whole entry): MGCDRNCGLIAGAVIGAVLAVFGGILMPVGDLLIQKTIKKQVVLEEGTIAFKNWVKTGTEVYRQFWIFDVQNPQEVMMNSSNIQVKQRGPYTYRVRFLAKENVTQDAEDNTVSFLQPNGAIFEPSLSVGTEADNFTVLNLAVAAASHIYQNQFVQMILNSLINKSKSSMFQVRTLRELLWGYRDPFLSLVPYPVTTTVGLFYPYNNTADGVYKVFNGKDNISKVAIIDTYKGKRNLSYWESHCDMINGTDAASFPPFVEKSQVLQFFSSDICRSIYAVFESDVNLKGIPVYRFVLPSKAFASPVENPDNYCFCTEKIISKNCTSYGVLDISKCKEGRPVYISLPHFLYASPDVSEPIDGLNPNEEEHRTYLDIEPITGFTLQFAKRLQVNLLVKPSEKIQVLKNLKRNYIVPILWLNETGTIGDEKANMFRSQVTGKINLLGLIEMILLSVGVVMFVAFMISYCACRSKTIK

Molecule: N.N.[Cl][Pt][Cl] [cisplatin, reference compound]
- mice in which metastasis into lymph nodes was prevented (FaDu cells; eight tested mice per group): one of the eight
- effect on primary tumor (IVIS imaging and H&E staining) (FaDu cells; antibody 1 mg/kg i.p. daily, cisplatin 2 mg/kg twice weekly): inhibited tumor growth
- size of lung metastases (Detroit 562 cells): did reduce the size

B1: 1G06: chimeric ONA-0-v1 IgG1 antibody; heavy chain SEQ ID NO: 64, light chain SEQ ID NO: 23 (antibody)
heavy: QVQLKQSGADLVRPGASVKLSCKASGYTFTDYYINWVKQRPGQGLEWIARIYPGSGNTYYNEKFKGKATLTAEKSSSTAYMQLSSLTSEDSAVYFCARGIGGGFGMDYWGQGTSVTVSSASTKGPSVFPLAPSSKSTSGGTAALGCLVKDYFPEPVTVSWNSGALTSGVHTFPAVLQSSGLYSLSSVVTVPSSSLGTQTYICNVNHKPSNTKVDKKVEPKSCDKTHTCPPCPAPESTRGPSVFLFPPKPKDTLMISRTPEVTCVVVDVSHEDPEVKFNWYVDGVEVHNAKTKPREEQYNSTYRVVSVLTVLHQDWLNGKEYKCKVSNKALPAPIEKTISKAKGQPREPQVYTLPPSRDELTKNQVSLTCLVKGFYPSDIAVEWESNGQPENNYKTTPPVLDSDGSFFLYSKLTVDKSRWQQGNVFSCSVMHEALHNHYTQKSLSLSPGK
light: SIVMTQTPKFLLVSAGDRITITCKASQSVSDDVAWYQQKPGQSPKLLIYYASNRYTGVPDRFTGSGYGTDFTFTISTVQAEDLAVYFCQQDYSSPLTFGAGTKLEIKRTVAAPSVFIFPPSDEQLKSGTASVVCLLNNFYPREAKVQWKVDNALQSGNSQESVTEQDSKDSTYSLSSTLTLSKADYEKHKVYACEVTHQGLSSPVTKSFNRGEC
- binding to cells overexpressing human CD36 (FACS) [1]: bound equivalently

B2: ONA-0-v2: murine IgA antibody; heavy chain SEQ ID NO: 5, light chain SEQ ID NO: 9 (antibody)
heavy: QVQLKQSGADLVRPGASVKLSCKASGYTFTDYYINWVKQRPGQGLEWIARIYPGSGNTYYNEKFKGKATLTAEKSSSTAYMQLSSLTSEDSAVYFCARGIGGGFGMDYWGQGTSVTVSSESARNPTIYPLTLPPVLCSDPVIIGCLIHDYFPFGTMNVTWGKSGKDITTVNFPPALASGGRYTMSSQLTLPAVECPEGESVKCSVQHDSNPVQELDVNCSPTPPPPITIPSCQPSLSLQRPALEDLLLGSDASITCTLNGLRNPEGAAFTWEPSTGKDAVQKKAAQNSCGCYSVSSVLPGCAERWNSGASFKCTVTHPESGTLTGTIAKVTVNTFPPQVHLLPPPSEELALNELLSLTCLVRAFNPKEVLVRWLHGNEELSPESYLVFEPLKEPGEGATTYLVTSVLRVSAETWKQGDQYSCMVGHEALPMNFTQKTIDRLSGKPTNVSVSVIMSEGDGICY
light: NIVMTQSPKSMSMSVGERVTLTCKASENVVTYVSWYQQKPEQSPKLLIYGASNRYTGVPDRFTGSGSATDFTLTISSVQAEDLADYHCGQGYSYPYTFGGGTKLEIKRADAAPTVSIFPPSSEQLTSGGASVVCFLNNFYPKDINVKWKIDGSERQNGVLNSWTDQDSKDSTYSMSSTLTLTKDEYERHNSYTCEATHKTSTSPIVKSFNRNEC
modifications: ONA-0-v1 heavy chain; ONA-0-v2 light chain
- binding to mouse CD36 in ELISA (mouse CD36): did not interact
- binding to human CD36 in ELISA (CD36): did not interact
